Assay results published in US11028084B2, “Selective inhibitors of gentotoxic steress-induced IKK/NF-κB pathways” (Max-Delbrück-Centrum für Molekulare Medizin in der …, priority 2016, dated 2021).
Values belong to the molecule of their own block, whether it stands above or below them.

Assays:
[1] = system: genotoxic stress-induced phosphorylation of p65 at S536; assay: Structure-activity-relationship: p-p65 S536/p65 densitometry after etoposide, U2OS cells; format: cell-based, human; conditions: 10 μM, 2 h prior to etoposide, normalised to DMSO/etoposide
Experimental: FIG. 13: (A) U2OS cells were pre-treated with DMSO, MW01 or its derivatives MW01A1-MW01C5 at concentrations of 10 μM for 2 h prior to etoposide treatment. After incubation with etoposide cells were harvested, lysed and subjected to SDS-PAGE/WB. Phospho-[…] p65 signal intensities as well as p65 signal intensities were detected using a CCD camera and band intensities were used for densitometrical analyses. DMSO and etoposide treated control was set to 1. Four independent experiments were performed and statistical outliers were identified and eliminated using Grubb's test. […] (B) NFkB/293/GFP-luc cells were pre-treated with DMSO, MW01 or its derivatives MW01D01-MW01D18 at concentrations of 10 μM for 1.5 h prior to etoposide treatment. After incubation for 4.5 hours NF-κB-dependent luciferase expression was measured by detection of chemoluminescence. DMSO and etoposide treated control was set to 1. Twelve independent experiments were performed.
Different derivatives of MW01 were obtained (FIG. 12 A) and tested for their ability to inhibit genotoxic stress-induced phosphorylation of p65 at S536. Densitometry of western blot bands was used to quantify signal intensities of the p65 S536 phosphorylation and total p65 amount. The signal intensities of the p65 S536 phosphorylation were normalised to the signal intensities of total p65 and the quotients were normalised to DMSO/etoposide and compared with MW01/etoposide co-treated samples (FIG. 13). […] Compared to MW01, these compounds are derivatives in which the hydroxyl group was exchanged with a small substitute either fluoride, chloride or a methyl group, respectively. Furthermore, MW01C3 and MW01C4 differed in the substitution of the aromatic ring system V (FIG. 12 B) regarding the two methoxy groups that are missing.

[2] = system: NF-κB target genes NFKBIA, TNFAIP3, CXCL8; assay: qRT-PCR of NF-κB target genes after irradiation, U2OS cells; format: cell-based, human; conditions: 90 min after irradiation
Experimental: (§1) FIG. 14: (A) U2OS cells were pre-treated with different concentrations of olaparib prior to co-treatment with etoposide. Whole cell lysis was performed after 90 min and cleared lysates were used for WB with indicated antibodies. (B) U2OS cells were pre-treated with DMSO, olaparib or the ATM inhibitor Ku55933 and co-treated with etoposide. Cells were harvested after 45 min and subjected to SDS-PAGE/WB. Membranes were stained with the indicated antibodies. The experiment of (B) was performed simultaneously to the experiments of (A) and (E) to control functionality of olaparib in inhibiting PAR chain formation. (C) Densitometrical analyses of (A) and two further independent experiments done as shown in (A). (D) U2OS cells were pre-treated with the substances as indicated prior to irradiation. After 90 min mRNA was isolated, transcribed into cDNA and was used for expression analyses of the indicated genes using quantitative real-time PCR (qRT-PCR). (E) HepG2 cells were pre-treated with the PARP inhibitors olaparib, 3-AB and EB-47 prior to γ-irradiation. Cells were harvested after 15 and 90 min and subjected to SDS-PAGE/WB. Membranes were stained with the indicated antibodies. Error bars equal SEM.
To quantitate specific mRNA (messenger RNA) species in samples RNA was isolated, RNA concentration was measured and mRNA was transcribed into cDNA. The amount of mRNA transcripts of certain genes within a sample was quantified by employing gene specific primers and using a C-1000 Thermal cycler (Biorad). The expression of genes of interest was normalised against two or three reference genes (HRPT1, RPL_13a and B2M) using the CFX manager software. The fold induction of mRNA was calculated over untreated sample levels by the ΔΔ-Ct method.

ATM = target: T1, ATM (Homo sapiens, UniProt Q13315); assay: Enzymatic activity of ATM in γ-irradiated HepG2 cells, WB of ATM and substrate phosphorylation; format: cell-based; conditions: HepG2, γ-irradiation, 60 min; MW01 5 μM, Ku55933 10 μM
T1 construct: endogenous in cells; host or cells: HepG2
T1 sequence (Q13315 whole entry): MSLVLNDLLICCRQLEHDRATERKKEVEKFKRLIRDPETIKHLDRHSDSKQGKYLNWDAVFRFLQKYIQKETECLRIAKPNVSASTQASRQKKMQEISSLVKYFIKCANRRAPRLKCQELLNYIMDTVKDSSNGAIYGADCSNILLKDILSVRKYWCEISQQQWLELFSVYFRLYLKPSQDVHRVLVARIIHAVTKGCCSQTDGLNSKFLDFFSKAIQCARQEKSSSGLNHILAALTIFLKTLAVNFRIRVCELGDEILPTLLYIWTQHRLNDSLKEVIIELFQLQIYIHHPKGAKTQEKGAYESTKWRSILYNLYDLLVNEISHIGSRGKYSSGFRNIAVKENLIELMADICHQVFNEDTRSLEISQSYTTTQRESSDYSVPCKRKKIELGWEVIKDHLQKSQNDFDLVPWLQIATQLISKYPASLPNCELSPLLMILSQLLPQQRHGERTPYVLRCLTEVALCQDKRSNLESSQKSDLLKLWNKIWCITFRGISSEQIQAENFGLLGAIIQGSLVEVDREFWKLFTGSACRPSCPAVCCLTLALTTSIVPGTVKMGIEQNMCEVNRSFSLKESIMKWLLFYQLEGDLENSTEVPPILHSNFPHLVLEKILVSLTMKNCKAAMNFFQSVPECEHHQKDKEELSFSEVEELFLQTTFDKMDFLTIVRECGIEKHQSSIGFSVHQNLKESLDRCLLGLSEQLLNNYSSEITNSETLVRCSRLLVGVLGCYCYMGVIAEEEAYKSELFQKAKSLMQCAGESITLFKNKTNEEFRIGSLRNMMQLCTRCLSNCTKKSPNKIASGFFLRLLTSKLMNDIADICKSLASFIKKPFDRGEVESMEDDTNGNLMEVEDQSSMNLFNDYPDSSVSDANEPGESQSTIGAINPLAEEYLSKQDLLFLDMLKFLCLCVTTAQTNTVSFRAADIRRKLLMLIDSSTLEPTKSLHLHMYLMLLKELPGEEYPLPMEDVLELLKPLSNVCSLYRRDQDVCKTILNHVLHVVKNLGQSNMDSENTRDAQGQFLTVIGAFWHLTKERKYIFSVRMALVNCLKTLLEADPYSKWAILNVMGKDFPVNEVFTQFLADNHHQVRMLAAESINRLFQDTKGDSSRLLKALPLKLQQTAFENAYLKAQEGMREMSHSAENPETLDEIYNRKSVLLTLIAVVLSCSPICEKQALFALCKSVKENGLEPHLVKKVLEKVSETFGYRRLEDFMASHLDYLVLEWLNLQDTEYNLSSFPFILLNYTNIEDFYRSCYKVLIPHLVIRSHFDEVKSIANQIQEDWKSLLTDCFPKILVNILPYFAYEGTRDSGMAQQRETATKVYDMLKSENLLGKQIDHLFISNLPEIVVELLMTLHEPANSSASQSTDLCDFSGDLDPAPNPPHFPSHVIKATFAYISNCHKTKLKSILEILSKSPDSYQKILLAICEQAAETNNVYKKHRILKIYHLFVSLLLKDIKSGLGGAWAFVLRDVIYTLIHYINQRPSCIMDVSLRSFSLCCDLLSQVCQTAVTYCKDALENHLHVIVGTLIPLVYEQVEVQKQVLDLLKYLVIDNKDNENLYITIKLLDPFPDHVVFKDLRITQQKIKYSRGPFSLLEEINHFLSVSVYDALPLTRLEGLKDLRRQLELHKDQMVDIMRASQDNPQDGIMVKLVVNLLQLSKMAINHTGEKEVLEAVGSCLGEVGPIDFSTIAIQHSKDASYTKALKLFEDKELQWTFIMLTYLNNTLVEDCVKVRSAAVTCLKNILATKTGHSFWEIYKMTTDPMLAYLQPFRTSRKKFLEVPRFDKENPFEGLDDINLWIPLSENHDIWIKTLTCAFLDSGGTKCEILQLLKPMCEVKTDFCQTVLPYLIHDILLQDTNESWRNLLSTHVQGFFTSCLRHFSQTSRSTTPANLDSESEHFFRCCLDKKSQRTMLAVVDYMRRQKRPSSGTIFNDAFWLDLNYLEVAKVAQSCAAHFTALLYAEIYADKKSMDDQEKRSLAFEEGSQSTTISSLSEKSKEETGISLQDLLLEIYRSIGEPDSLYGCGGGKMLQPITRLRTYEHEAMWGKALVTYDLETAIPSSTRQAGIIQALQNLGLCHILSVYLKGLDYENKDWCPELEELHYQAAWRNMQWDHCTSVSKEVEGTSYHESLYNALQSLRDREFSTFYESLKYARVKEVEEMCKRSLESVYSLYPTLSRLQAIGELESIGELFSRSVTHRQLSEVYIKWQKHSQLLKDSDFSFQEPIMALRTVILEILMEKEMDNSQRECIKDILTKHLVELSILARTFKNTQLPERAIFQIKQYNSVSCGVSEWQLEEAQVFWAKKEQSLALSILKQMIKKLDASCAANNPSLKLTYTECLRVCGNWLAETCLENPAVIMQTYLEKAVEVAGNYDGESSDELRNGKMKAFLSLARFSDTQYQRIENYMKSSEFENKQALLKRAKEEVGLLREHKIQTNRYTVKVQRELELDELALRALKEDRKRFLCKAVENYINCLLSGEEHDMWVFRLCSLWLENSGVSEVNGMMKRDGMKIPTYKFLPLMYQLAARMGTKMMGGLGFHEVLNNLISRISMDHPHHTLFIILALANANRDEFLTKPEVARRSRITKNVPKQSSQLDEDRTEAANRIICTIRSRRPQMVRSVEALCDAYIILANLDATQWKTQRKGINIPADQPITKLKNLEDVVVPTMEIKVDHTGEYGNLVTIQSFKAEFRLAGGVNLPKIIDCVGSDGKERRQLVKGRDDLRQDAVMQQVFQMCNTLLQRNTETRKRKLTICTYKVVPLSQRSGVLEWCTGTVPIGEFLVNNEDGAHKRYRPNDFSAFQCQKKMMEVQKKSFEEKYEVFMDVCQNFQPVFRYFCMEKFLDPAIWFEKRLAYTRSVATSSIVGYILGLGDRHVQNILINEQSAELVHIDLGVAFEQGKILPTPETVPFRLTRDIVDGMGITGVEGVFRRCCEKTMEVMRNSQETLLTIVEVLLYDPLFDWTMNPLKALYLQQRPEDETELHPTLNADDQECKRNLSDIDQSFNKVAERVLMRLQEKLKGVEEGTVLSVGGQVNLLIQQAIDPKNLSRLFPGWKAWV
Experimental: (§2) FIG. 9: HepG2 cells were pre-incubated with DMSO, MW01 (5 μM) or the ATM inhibitor Ku55933 (10 μM) and irradiated. After 60 min cells were harvested and processed. Immunochemical staining of Western blotting membranes was done using indicated antibodies.

PARP1 [3] = target: T2, PARP1 (Homo sapiens, UniProt P09874); conditions: HepG2, after γ-irradiation (Stilmann et al.; 2009); cited from earlier work
T2 sequence (P09874 whole entry): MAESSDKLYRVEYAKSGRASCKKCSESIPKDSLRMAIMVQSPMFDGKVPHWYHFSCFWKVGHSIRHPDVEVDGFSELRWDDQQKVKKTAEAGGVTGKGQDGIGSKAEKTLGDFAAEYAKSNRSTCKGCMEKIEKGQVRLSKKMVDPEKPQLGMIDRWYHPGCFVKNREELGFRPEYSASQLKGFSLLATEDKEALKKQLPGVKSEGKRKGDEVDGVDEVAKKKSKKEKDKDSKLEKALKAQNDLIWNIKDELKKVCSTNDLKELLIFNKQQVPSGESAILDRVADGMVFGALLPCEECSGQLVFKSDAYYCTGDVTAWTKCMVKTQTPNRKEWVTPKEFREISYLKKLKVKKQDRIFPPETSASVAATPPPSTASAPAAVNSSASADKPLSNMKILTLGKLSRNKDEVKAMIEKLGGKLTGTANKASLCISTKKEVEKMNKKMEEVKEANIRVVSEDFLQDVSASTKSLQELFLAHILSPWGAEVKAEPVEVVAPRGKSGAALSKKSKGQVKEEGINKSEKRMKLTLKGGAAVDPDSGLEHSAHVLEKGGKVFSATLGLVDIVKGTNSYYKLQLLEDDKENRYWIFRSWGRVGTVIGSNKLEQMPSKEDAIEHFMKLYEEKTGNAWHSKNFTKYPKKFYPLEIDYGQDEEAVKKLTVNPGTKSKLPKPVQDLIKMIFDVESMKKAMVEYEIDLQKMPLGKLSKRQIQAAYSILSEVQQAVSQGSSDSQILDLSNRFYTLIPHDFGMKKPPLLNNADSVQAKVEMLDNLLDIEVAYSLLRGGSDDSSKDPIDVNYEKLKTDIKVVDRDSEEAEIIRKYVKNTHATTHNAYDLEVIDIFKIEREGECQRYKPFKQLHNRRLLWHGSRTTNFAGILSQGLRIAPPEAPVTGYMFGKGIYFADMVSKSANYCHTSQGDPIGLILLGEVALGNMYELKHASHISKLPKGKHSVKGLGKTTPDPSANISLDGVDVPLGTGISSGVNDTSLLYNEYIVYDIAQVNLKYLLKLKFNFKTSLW

PARP1 [4] = target: T2, PARP1; assay: PAR chain formation after γ-irradiation, HepG2 cells; format: cell-based; set-up: endogenous in cells; conditions: HepG2, 15 min after irradiation
Experimental: as §1

PARP1 [5] = target: T3, PARP1 (Mus musculus, UniProt P11103); conditions: MEF, after etoposide administration (Stilmann et al.; 2009); cited from earlier work
T3 construct: MEF cells were pre-treated with the indicated substances, irradiated and cell lysates were used for poly(ADP)-ribose probing; endogenous in cells; host or cells: MEF (mouse embryonic fibroblasts)
T3 sequence (P11103 whole entry): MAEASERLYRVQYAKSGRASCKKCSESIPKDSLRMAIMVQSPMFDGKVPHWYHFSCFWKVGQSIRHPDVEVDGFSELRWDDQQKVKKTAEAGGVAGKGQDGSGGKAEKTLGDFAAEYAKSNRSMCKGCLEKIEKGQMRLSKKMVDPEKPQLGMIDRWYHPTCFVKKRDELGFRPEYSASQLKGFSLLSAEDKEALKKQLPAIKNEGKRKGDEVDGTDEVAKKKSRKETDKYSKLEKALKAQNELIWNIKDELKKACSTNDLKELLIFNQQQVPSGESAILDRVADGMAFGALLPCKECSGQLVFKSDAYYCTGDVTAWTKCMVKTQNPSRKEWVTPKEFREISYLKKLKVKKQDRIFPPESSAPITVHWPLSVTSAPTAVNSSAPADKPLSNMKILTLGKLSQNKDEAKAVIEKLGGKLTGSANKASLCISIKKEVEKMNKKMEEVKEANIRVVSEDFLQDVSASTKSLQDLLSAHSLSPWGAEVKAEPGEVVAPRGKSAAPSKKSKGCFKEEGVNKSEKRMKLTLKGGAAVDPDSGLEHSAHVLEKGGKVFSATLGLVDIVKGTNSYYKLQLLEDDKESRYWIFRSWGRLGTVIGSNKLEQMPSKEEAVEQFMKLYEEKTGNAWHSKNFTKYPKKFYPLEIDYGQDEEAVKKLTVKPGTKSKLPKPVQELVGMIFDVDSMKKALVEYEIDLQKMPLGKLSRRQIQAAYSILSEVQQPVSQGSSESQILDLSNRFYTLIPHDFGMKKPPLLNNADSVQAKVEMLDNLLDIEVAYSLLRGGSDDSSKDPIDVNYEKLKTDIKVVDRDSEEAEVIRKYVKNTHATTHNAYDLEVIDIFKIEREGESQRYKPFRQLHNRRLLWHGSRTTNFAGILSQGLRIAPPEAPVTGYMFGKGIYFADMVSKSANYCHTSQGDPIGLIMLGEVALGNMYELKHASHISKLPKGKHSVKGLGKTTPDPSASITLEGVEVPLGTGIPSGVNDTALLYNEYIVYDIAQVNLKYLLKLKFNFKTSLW

PARP1 [6] = target: T3, PARP1; assay: PARP1 enzymatic activity, PAR chain formation after γ-irradiation, MEF cells; format: cell-based
Excerpt: FIG. 10: (A) MEF cells were pre-treated with the indicated substances, irradiated and cell lysates were used for poly(ADP)-ribose probing using a specific antibody. (B) Experiment performed as described for (A), but using U2OS cells.

[7] = system: NF-κB DNA binding activity; conditions: HEK293; data not shown, personal communication; cited from earlier work
[8] = system: genotoxic stress-activated NF-κB signaling; assay: TAK1 and p65 S536 phosphorylation after γ-irradiation, WB, HepG2 cells; format: cell-based, human; conditions: HepG2, 90 min after irradiation, PARP inhibitors
Experimental: FIG. 6: (A) U2OS cells were pre-treated with DMSO or MW01 and irradiated. Stimulation of cell with IL-1β served as a positive control for IκBα and p65 phosphorylation. Cells were lysed at indicated time points and used for WB analyses. (B,C) Similar experimental setup as in (A). (D) Experiment as in (A-C), but with other time points analysed and performed with HepG2 cells. PARP1 and LDH serve as loading controls.
as §2, §1

p65 S536 phosphorylation = p65 S536 phosphorylation after γ-IR or etoposide, SDS-PAGE/WB, U2OS cells; format: cell-based, human
Experimental: FIG. 3: (A) U2OS cells were pre-treated with increasing concentrations of MW01 in duplicates in a 384 well plate. Then, cells were treated with etoposide, fixed and subjected to IF of p65. Spatial measurement of p65 cytosolic and nuclear localisation was used for calculation of p65 translocation rates. (B) U2OS cells were pre-treated with DMSO, MW01 and irradiated with γ-IR. After 90 min cells were lysed and subjected to SDS-PAGE/WB and EMSA. (C) Cells were pre-treated with different concentrations of MW01 as indicated, treated with γ-IR (C) or etoposide (D) and subjected to WB or EMSA, respectively. LDH in (C) represents the loading control.
as §1, with “Cells were harvested after 15 and 90 min and subjected to SDS-PAGE/WB. Membranes were stained with the indicated antibodies. Error bars equal SEM.” left out
After transfer of proteins on PVDF membranes unspecific binding of antibodies was blocked by incubation of membranes in 5% skim milk powder in TBST buffer (or 3% BSA in TBST for phosphorylation-specific antibodies) for 1 h at RT. […] After three times of washing with TBST and once with PBS for 5 min, chemiluminescent photon emission was detected using a CCD camera system (Fusion Solo). […]

Structure (SMILES): COc1ccc2c3ccnc4c5ccc(OC)c(OC)c5c(=O)n(c2c1)c34 [MW01C1, 6,7,11-trimethoxy-8H-benzo[c]indolo[3,2,1-ij][1,5]naphthyridin-8-one]
- p-p65/p65 ratio (inhibition of NF-κB activation following etoposide co-treatment) [1]: highly potent derivative

Structure (SMILES): COc1ccc2c(c1OC)c(=O)n1c3ccc(F)cc3c3ccnc2c31 [MW01C2, 12-fluoro-6,7-dimethoxy-8H-benzo[c]indolo[3,2,1-ij][1,5]naphthyridin-8-one]
- p-p65/p65 ratio (inhibition of NF-κB activation following etoposide co-treatment) [1]: lowest p-p65/p65 ratios

- ATM auto-phosphorylation and phosphorylation of the ATM substrates p53 and KAP1 (ATM): inhibited
- phosphorylation state of p53bp1 (ATM): inhibited
Structure (SMILES): O=c1cc(-c2cccc3c2Sc2ccccc2S3)oc(N2CCOCC2)c1 [KU55933, reference compound]
- NFKBIA, TNFAIP3 and CXCL8 mRNA induction upon irradiation [2]: complete inhibition

- PAR chain formation (PARP1 [4]): abolished
- PAR chain formation / PARP1 enzymatic activity (PARP1 [6]): inhibition of PAR chain formation
Structure (SMILES): NC(=O)c1cccc(N)c1 [Example 3-AB]
- PAR chain formation and NF-κB DNA binding activity (PARP1 [3]): inhibited PAR chain formation and NF-κB DNA binding activity
- PAR chain formation and NF-κB binding activity (PARP1 [5]): abrogated PAR chain formation and NF-κB binding activity
- NF-κB DNA binding activity [7]: did not abolish
- phosphorylation of p65 at S536 [8]: decreased phosphorylation

Structure (SMILES): Cc1ccc2c(c1)c1ccnc3c4ccccc4c(=O)n2c13 [MW01C3, 12-methyl-8H-benzo[c]indolo[3,2,1-ij][1,5]naphthyridin-8-one]
- p-p65/p65 ratio (inhibition of NF-κB activation following etoposide co-treatment) [1]: lowest p-p65/p65 ratios

- PAR chain formation (PARP1 [4]): abolished
- PAR chain formation / PARP1 enzymatic activity (PARP1 [6]): inhibition of PAR chain formation
Structure (SMILES): Nc1ncnc2c1ncn2[C@@H]1O[C@H](C(=O)N2CCN(CC(=O)Nc3cccc4c3CNC4=O)CC2)[C@@H](O)[C@H]1O [EB-47]
- PAR chain formation and NF-κB binding activity (PARP1 [5]): abrogated PAR chain formation and NF-κB binding activity
- phosphorylation of p65 at S536 [8]: detected

Structure (SMILES): O=c1c2ccccc2c2nccc3c4cc(Cl)ccc4n1c32 [MW01C4, 12-chloro-8H-benzo[c]indolo[3,2,1-ij][1,5]naphthyridin-8-one]
- p-p65/p65 ratio (inhibition of NF-κB activation following etoposide co-treatment) [1]: lowest p-p65/p65 ratios

Structure (SMILES): O=C(c1cc(Cc2n[nH]c(=O)c3ccccc23)ccc1F)N1CCN(C(=O)C2CC2)CC1 [olaparib]
- NFKBIA, TNFAIP3 and CXCL8 mRNA induction upon irradiation [2]: did not change
- p65 S536 phosphorylation in comparison to DMSO/etoposide co-treated controls (p65 S536 phosphorylation; 0.63 μM to 10.0 μM, 90 min after etoposide): No significant decrease
- signal intensity ratio of S536 phosphorylated p65 and total p65 (densitometry, three experiments) (p65 S536 phosphorylation; etoposide co-treatment): did not influence
- phosphorylation of p65 at S536 [8]: decreased phosphorylation
